Measured values as given in BindingDB's records for doi:10.1021/jm00008a012 (University of Minnesota, 1995).

Assays:
[1] = Tested for binding affinity against delta1 opioid receptor using [3H]-DPDPE as a radioligand in the guinea pig brain membranes.
[2] = Tested for binding affinity against delta2 opioid receptor using [3H]DSLET as a radioligand in the guinea pig brain membranes.

| Structure (SMILES) | Ki [1] | Ki [2] |
| --- | --- | --- |
| O=C(CBr)Nc1cccc(Cn2c3c(c4ccccc42)C[C@@]2(O)C4Cc5ccc(O)c6c5C2(CCN4CC2CC2)[C@H]3O6)c1 (stereo partly drawn) [1N-{3-[22-cyclopropylmethyl-2,16-dihydroxy-14-oxa-11,22-diazaheptacyclo[13.9.1.01,13.02,21.04,12.05,10.019,25]pentacosa-4(12),5(10),6,8,15,17,19(25)-heptaen-11-ylmethyl]phenyl}-2-bromoacetamide] | 0.019 nM | 0.038 nM |
| Oc1ccc2c3c1O[C@H]1c4c(c5ccccc5n4Cc4cccc(N=C=S)c4)C[C@@]4(O)C(C2)N(CC2CC2)CCC314 (stereo partly drawn) [22-cyclopropylmethyl-11-(3-isothiocyanatobenzyl)-14-oxa-11,22-diazaheptacyclo[13.9.1.01,13.02,21.04,12.05,10.019,25]pentacosa-4(12),5(10),6,8,15,17,19(25)-heptaene-2,16-diol] | 4.2 nM | 7 nM |
| Oc1ccc2c3c1O[C@H]1c4c(c5ccccc5n4Cc4ccc(N=C=S)cc4)C[C@@]4(O)C(C2)N(CC2CC2)CCC314 (stereo partly drawn) [22-cyclopropylmethyl-11-(4-isothiocyanatobenzyl)-14-oxa-11,22-diazaheptacyclo[13.9.1.01,13.02,21.04,12.05,10.019,25]pentacosa-4(12),5(10),6,8,15,17,19(25)-heptaene-2,16-diol] | 5.3 nM | 5 nM |
| Oc1ccc2c3c1O[C@H]1c4c(c5ccccc5n4Cc4ccccc4N=C=S)C[C@@]4(O)C(C2)N(CC2CC2)CCC314 (stereo partly drawn) [22-cyclopropylmethyl-11-(2-isothiocyanatobenzyl)-14-oxa-11,22-diazaheptacyclo[13.9.1.01,13.02,21.04,12.05,10.019,25]pentacosa-4(12),5(10),6,8,15,17,19(25)-heptaene-2,16-diol] | 2 nM | 3.6 nM |
